We go through 4 molecules from EP0592600B1, “PROTEINS S POLYPEPTIDES AND USES THEREOF” (THE SCRIPPS RESEARCH INSTITUTE, priority 1991, dated 1993).

Bridge positions count the residues as written; N and C are the ends. Ends that are not written are not given here. Peptide text beside a SMILES is read from it.

Test [1] has as its target T1, PS:C4BP complex (Homo sapiens, UniProt P04003+P20851).
T1 construct: Purified human C4BP was obtained from 5 liters (1) of human citrated plasma; from tissue; host or cells: human citrated plasma (C4BP); protein S per Schwarz et al
T1 sequence (P04003 49-597): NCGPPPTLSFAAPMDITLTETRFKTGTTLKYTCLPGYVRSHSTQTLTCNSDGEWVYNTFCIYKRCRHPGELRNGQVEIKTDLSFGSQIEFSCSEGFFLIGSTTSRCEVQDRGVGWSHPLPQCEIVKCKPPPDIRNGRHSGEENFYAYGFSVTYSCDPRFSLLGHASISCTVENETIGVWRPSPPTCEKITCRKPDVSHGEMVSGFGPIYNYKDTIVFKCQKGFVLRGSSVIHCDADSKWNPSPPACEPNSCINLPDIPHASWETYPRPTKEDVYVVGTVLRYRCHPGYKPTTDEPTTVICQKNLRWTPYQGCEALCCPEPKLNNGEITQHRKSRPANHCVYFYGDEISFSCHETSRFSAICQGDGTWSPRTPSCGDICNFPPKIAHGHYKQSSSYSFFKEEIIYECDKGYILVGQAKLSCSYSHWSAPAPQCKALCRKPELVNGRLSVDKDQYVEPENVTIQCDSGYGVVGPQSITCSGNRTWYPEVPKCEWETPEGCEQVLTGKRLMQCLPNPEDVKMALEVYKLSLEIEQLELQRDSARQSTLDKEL
T1 sequence (P20851 18-252): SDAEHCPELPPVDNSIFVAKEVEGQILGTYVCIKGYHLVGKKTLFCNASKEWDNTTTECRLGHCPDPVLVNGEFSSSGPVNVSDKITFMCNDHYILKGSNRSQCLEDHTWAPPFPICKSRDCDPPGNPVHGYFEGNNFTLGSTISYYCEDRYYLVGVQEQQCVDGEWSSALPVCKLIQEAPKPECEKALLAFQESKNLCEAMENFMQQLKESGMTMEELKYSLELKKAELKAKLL
Put plainly: Peptide Inhibition Assay: binding of b-PS to C4BP in solid phase. The following applies: subsequent experiments. Here is the method: Each of the peptides produced as described in Example 1 and listed in Table 1 was analyzed for its ability to inhibit the binding of native protein S in liquid-phase to C4BP in solid-phase.
Microtiter wells of a 96 well plate were coated with 50 µl of 10 µg/ml purified C4BP in carbonate buffer (0.02 M Na2CO3, pH 9.0, 0.02% Na-Azide). After blocking with 10% BSA in TBS, 50 µl of different concentrations of peptides diluted in washing buffer (TBS, 0.2% BSA, 5mM CaCl, 0.02% Tween 20) were separately admixed to C4BP-coated wells. After 2 hours at room temperature, 50 µl of a solution of biotinylated protein S, were admixed to each well to form a second binding admixture having a final concentration of 2 µg/ml. The plate was agitated and the samples were incubated 1 hour at room temperature. The samples were discarded and the wells were washed 3 times with washing buffer. To each well, 50 µl of strepavidin-alkaline-phosphatase (1 µg/ml washing buffer) were admixed and allowed to incubate for 30 minutes at room temperature. The strepavidin-alkaline-phosphatase was then discarded and the wells were washed 6 times with washing buffer. The resulting optical densities of the reaction solutions were read as described before in Example 2C.
Results of the assay are reported as percent inhibition of C4BP binding. Percent of inhibition of C4BP binding is defined as: I = 100% - 100 x (deltaT /deltaC ) [formula] • where I is expressed as a percent; and • where 100% = delta/min of the amount of b-PS which specifically bound to C4BP-coated wells in the absence of any competing PS-peptide; and • where deltaT = the change in absorbance (405 nm) in the presence of competing PS-peptide; and • where deltaC = the change in absorbance (405 nm) in the absence of competing PS-peptide.

Test [2] deals with T1, PS:C4BP complex. The test can be described thus: Peptide inhibition of binding of b-C4BP to PS-coated wells. Here is the method:
An alternative approach was used to test the ability of the peptides, PSP-loop and PSP-428K, in comparison with that seen with the PSP-12 peptide, in inhibiting the binding of C4BP to PS. For this assay, the microtiter wells were coated with purified PS diluted to a concentration of 10 µg/ml in carbonate-coating buffer as described above. The wells were maintained to allow the PS to bind to the well walls. After the maintenance period, the wells were blocked also as described above. The selected PSP peptides were separately admixed at various concentrations ranging from 0 - 500 µM with biotinylated-C4BP (b-C4BP) at a concentration of 1 µg/ml. The admixtures were maintained on a fluid phase plate for 2 hours at room temperature to form peptide-C4BP complexes.
Fifty µl of the complexed admixtures were separately admixed to the prepared C4BP-coated wells and maintained for 1 hour at room temperature. Thereafter, the plate was washed and processed for developing as described above.

The target of test [3] is T1, PS:C4BP complex. Put plainly: Fluid-phase peptide inhibition of b-PS binding to C4BP, detected on anti-C4BP polyclonal antibody-coated plates. Here is the method:
(§1) An alternative approach was used to test the ability of the peptides, PSP-loop, PSP-424K and PSP-428K, in comparison with that seen with the PSP-12 peptide, in inhibiting the binding of PS to C4BP, the result of which was detected on polyclonal antibody-coated plates. For this assay, C4BP, biotinylated-PS (b-PS) and PSP peptides were admixed together at the respective concentrations of 3 µg/ml, 0.6 µg/ml and at a range of 0 - 500 µM (V:V:V). The admixtures were maintained for 2 hours at room temperature on a fluid phase plate to allow the binding and/or inhibition thereof of PS to C4BP by the PS-derived peptides. After the maintenance period, 50 µl of the admixture were separately admixed to wells previously coated with 10 µg/ml of anti-C4BP IgG polyclonal antibody. The admixtures were maintained for 1 hour at room temperature to allow for the binding of C4BP to C4BP-antibody-coated plates. The binding of biotinylated complexes to the antibody-coated plates was detected as described in Example 5Aii.

Test [4] deals with T1, PS:C4BP complex. Put plainly: Fluid-phase peptide inhibition of PS binding to b-C4BP, detected on MAb S-7-coated plates. The method, then:
as §1, with “monoclonal” for “polyclonal”, “biotinylated-C4BP (b-C4BP), PS” for “C4BP, biotinylated-PS (b-PS)”, “0.5” for “3”, “1.0” for “0.6”, “MAb S-7 (ATCC No. HB 80819).” for “anti-C4BP IgG polyclonal antibody.”, “MAb S-7-antibody-coated” for “C4BP-antibody-coated”

Test [5] concerns the target T2, C4BP (Homo sapiens, UniProt P04003+P20851).
T2 sequence (P04003 49-597): T1 sequence (P04003 49-597)
T2 sequence (P20851 18-252): T1 sequence (P20851 18-252)
The following applies: in vitro; cited from earlier work.

Test [6] has as its target T3, C4b binding protein (human, UniProt P04003 49-597; P20851 18-252).
T3 construct: mature; The beta chain is added from general knowledge; Biotinylated (b-C4BP) in some assays; also called C4BP; purified human C4BP
T3 sequence (looked up) 1: T1 sequence (P04003 49-597)
T3 sequence (looked up) 2: T1 sequence (P20851 18-252)
Put plainly: Competition ELISA, peptide preincubated with b-C4BP, PS-coated wells. On the technique in general: An ELISA detects its analyte on a solid surface through an enzyme-linked reagent.

Test [7] concerns the target T3, C4b binding protein. The test can be described thus: Fluid-phase competition of b-C4BP, PS and peptide; capture on MAb S-7.
Test [8] deals with T3, C4b binding protein. The test can be described thus: Fluid-phase competition of C4BP, b-PS and peptide; capture on anti-C4BP polyclonal IgG.

Regarding `CC[C@H](C)[C@@H]1NC(=O)[C@H](CO)NC(=O)[C@H](C)NC(=O)CNC(=O)[C@H](CCC(N)=O)NC(=O)[C@H](CCCCN)NC(=O)[C@H](CCSC)NC(=O)[C@H](CC(C)C)NC(=O)[C@H](CC(N)=O)NC(=O)[C@H](Cc2c[nH]c3ccccc23)NC(=O)[C@H](CO)NC(=O)[C@H](CCCNC(=N)N)NC(=O)[C@H]([C@@H](C)CC)NC(=O)[C@@H](N)CSSC[C@@H](C(N)=O)NC(=O)[C@H](Cc2c[nH]cn2)NC(=O)[C@H](CCCCN)NC(=O)[C@H](CC(N)=O)NC(=O)[C@H](CCC(N)=O)NC(=O)[C@H](CCCCN)NC(=O)[C@H](CCC(=O)O)NC(=O)[C@H](CCC(N)=O)NC(=O)[C@H]([C@@H](C)CC)NC(=O)[C@H]([C@@H](C)CC)NC(=O)[C@H](CCC(=O)O)NC(=O)[C@H](CCCCN)NC1=O` [PSP-loop] (H-CIRSWNLMKQGASIKEIIQEKQNKHC-NH2; disulfide 1-26; N-terminus assumed), in test [1], the “peptide concentration that completely inhibits the binding of PS to C4BP” value is on record as “approximately 250 µM”. For the same molecule, the IC90 (usually the concentration needed for an effect of 90%) in test [2] is 50 µM; in test [3], around 400 µM; in test [4] it was around 100 µM.
For the molecule `CC[C@H](C)[C@H](NC(=O)CNC(=O)[C@@H](N)CO)C(=O)N[C@@H](CCCCN)C(=O)N[C@@H](CCCCN)C(=O)N[C@H](C(=O)N[C@H](C(=O)N[C@@H](CCC(N)=O)C(=O)N[C@@H](CCC(=O)O)C(=O)N[C@@H](CCCCN)C(=O)N[C@@H](CCC(N)=O)C(=O)N[C@@H](CC(N)=O)C(=O)N[C@@H](CCCCN)C(=O)N[C@@H](CS)C(N)=O)[C@@H](C)CC)[C@@H](C)CC` [PSP-424K] (H-SGIKKIIQEKQNKC-NH2), the IC90 in test [2] (b-C4BP 1 µg/ml, PS-coated wells, peptide 0 - 500 µM, read-out: IC90) is around 250 µM; in test [4] (b-C4BP 0.5 µg/ml, PS 1.0 µg/ml, peptide 0 - 500 µM, read-out: IC90), around 250 µM. Moreover, the IC50 in test [2] (b-C4BP 1 µg/ml, PS-coated wells, peptide 0 - 500 µM, read-out: half-maximal inhibitory concentration (IC50)) is around 50 µM; in test [4] (b-C4BP 0.5 µg/ml, PS 1.0 µg/ml, peptide 0 - 500 µM), around 50 µM. For the same molecule, in test [3] (compared with PSP-loop), the “inhibition of the binding of b-PS to C4BP” value is reported as “also inhibitory but with lower effectiveness”.
As for “GVQLDLDEAI [synthetic peptide derived from the carboxy terminal region of protein S (residues 605 to 614 of mature PS)]”, the “effect on the interaction of protein S with C4BP” value in test [5] is listed as “inhibits the interaction of protein S with C4BP in vitro”.
As for CIRSWNLMKQGASIKEIIQEKQNKHC-NH2 (cysteine pairing not given here, also called loop peptide) [PSP-loop], the results for the IC50 in test [6], in test [7] and in test [8] were around 15 µM, around 35 µM and around 40 µM, respectively. The IC90 in test [6] came out at 50 µM.
